Square brackets hold non-standard residues; d marks the D form. Peptide text beside a SMILES is read from it. * marks the point of attachment. Propanoyl(3-(3-pyridyl)) = O=C(CCc1cccnc1)*; Arg(Me) = CNC(=N)NCCC[C@H](N)C(=O)O; azaGly = NNC(=O)O
Target: hOT7T175 (Homo sapiens, UniProt Q969F8, L364H)
Assay: hOT7T175 receptor binding activity: binding inhibition of Cy-5-labeled metastin (40-54) on hOT7T175-expressed CHO cells
Parameters: expressed in transfected cells; host or cells: CHO cells

Chain of hOT7T175 (Q969F8 whole entry L364H): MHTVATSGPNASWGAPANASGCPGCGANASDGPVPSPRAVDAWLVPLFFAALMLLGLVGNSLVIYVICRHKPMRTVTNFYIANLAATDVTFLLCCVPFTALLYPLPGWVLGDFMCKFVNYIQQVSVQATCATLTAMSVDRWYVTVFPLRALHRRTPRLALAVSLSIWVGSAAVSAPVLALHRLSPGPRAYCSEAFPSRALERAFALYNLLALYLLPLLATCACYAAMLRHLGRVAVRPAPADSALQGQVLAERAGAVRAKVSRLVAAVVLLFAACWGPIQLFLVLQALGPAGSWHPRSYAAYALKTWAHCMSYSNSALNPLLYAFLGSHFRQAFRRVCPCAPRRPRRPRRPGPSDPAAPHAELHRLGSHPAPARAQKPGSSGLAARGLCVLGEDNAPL

Q: Which IC50 does the source give for `CNC(=N)NCCC[C@H](NC(=O)[C@H](CC(C)C)NC(=O)NNC(=O)[C@H](Cc1ccccc1)NC(=O)[C@H](CO)NC(=O)[C@H](CC(N)=O)NC(=O)CCc1cccnc1)C(=O)N[C@@H](Cc1ccccc1)C(N)=O` [Compound No. 322, 3-Pyridylpropionyl-Asn-Ser-Phe-AzaGly-Leu-Arg(Me)-Phe-NH2] ({Propanoyl(3-(3-pyridyl))}-NSF[azaGly]L[Arg(Me)]F-NH2) here?
A: The IC50 was 54 nM.

From patent US8361968B2 (Takeda Pharmaceutical Company Limited, priority 2002, dated 2013)
